Assay results published in ChEMBL document CHEMBL1201862, “PubChem BioAssay data set” (2004).
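Tested at 5 concentrations; 48 h exposure; 96-well plates; endpoints linearly interpolated, else capped at highest concentration. The concentration for 50% growth inhibition is given as GI50.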 Active and inactive are the calls of the source. No stated cut-off is given here; in the data, active = GI50 up to about 1.1 µM and inactive = higher.

How the values were obtained:
Experiment in all cases: NCI anticancer screen, dose series, 48 h
[1] = system: SNB-19
[2] = system: T47D
[3] = system: MDA-MB-231
[4] = system: SK-OV-3
[5] = system: SK-MEL-2
[6] = system: ACHN
[7] = system: BT-549
[8] = system: HT-29
[9] = system: LOX IMVI
[10] = system: COLO 205
[11] = system: PC-3
[12] = system: MDA-N
[13] = system: U-251
[14] = system: SK-MEL-5
[15] = system: SF-295
[16] = system: 786-0
[17] = system: IGROV-1
[18] = system: EKVX
[19] = system: M14
[20] = system: OVCAR-5

SMILES	GI50 [1]	GI50 [2]	GI50 [3]	GI50 [4]	GI50 [5]	GI50 [6]	GI50 [7]	GI50 [8]	GI50 [9]	GI50 [10]	GI50 [11]	GI50 [12]	GI50 [13]	GI50 [14]	GI50 [15]	GI50 [16]	GI50 [17]	GI50 [18]	GI50 [19]	GI50 [20]
Cc1ccc(F)c2[nH]c(-c3ccccc3)cc(=O)c12	9.98 µM (inactive)	11.3 µM (inactive)	20.9 µM (inactive)	5.43 µM (inactive)	6.93 µM (inactive)	8.77 µM (inactive)	7.06 µM (inactive)	4.57 µM (inactive)	4.68 µM (inactive)	6.81 µM (inactive)	8.81 µM (inactive)	0.897 µM (active)	6.04 µM (inactive)	2.75 µM (inactive)	6.47 µM (inactive)	2.83 µM (inactive)	5.3 µM (inactive)	> 25.2 µM (inactive)	3.37 µM (inactive)	9.1 µM (inactive)
c1ccc2[nH]c(C3CCCCO3)nc2c1 (centres undefined)	> 100 µM (inactive)	> 100 µM (inactive)	> 100 µM (inactive)	> 100 µM (inactive)	> 100 µM (inactive)	> 100 µM (inactive)	> 100 µM (inactive)	> 100 µM (inactive)	> 100 µM (inactive)	> 100 µM (inactive)	> 100 µM (inactive)	> 100 µM (inactive)	> 100 µM (inactive)	> 100 µM (inactive)	> 100 µM (inactive)	> 100 µM (inactive)	> 100 µM (inactive)	> 100 µM (inactive)	> 100 µM (inactive)	> 100 µM (inactive)
CC(C)CC(=O)CC(O)C(Cl)(Cl)Cl (centres undefined)	> 100 µM (inactive)	> 100 µM (inactive)	> 100 µM (inactive)	87.1 µM (inactive)	> 100 µM (inactive)	> 100 µM (inactive)	> 100 µM (inactive)	> 100 µM (inactive)	> 100 µM (inactive)	> 100 µM (inactive)	> 100 µM (inactive)	> 100 µM (inactive)	> 100 µM (inactive)	> 100 µM (inactive)	> 100 µM (inactive)	> 100 µM (inactive)	> 100 µM (inactive)	> 100 µM (inactive)	> 100 µM (inactive)	> 100 µM (inactive)
CCOC(=O)N1CCC2(CC1)CC(=O)N(Nc1ccccc1)C2=O	> 100 µM (inactive)	43.5 µM (inactive)	> 100 µM (inactive)	> 100 µM (inactive)	> 100 µM (inactive)	9.71 µM (inactive)	> 100 µM (inactive)	90.2 µM (inactive)	98.4 µM (inactive)	> 100 µM (inactive)	40.6 µM (inactive)	78.3 µM (inactive)	> 100 µM (inactive)	> 100 µM (inactive)	40.3 µM (inactive)	> 100 µM (inactive)	79.8 µM (inactive)	> 100 µM (inactive)	> 100 µM (inactive)	91.6 µM (inactive)
COc1ccc(Nc2c(C#N)c3n(c4ccccc24)c2ccccc2[n+]3C)cc1OC	3.92 µM (inactive)	6.05 µM (inactive)	1.73 µM (inactive)	5.14 µM (inactive)	3.86 µM (inactive)	1.96 µM (inactive)	7.33 µM (inactive)	3.13 µM (inactive)	1.9 µM (inactive)	2.19 µM (inactive)	2.33 µM (inactive)	2.7 µM (inactive)	2.7 µM (inactive)	3.49 µM (inactive)	2.77 µM (inactive)	2.12 µM (inactive)	3.58 µM (inactive)	2.93 µM (inactive)	2.94 µM (inactive)	2.25 µM (inactive)
O=N/N=c1\o[n-][n+](CCc2ccccc2)c1Cc1/c(=N/N=O)o[n-][n+]1CCc1ccccc1	28.2 µM (inactive)	27.9 µM (inactive)	33.9 µM (inactive)	34.4 µM (inactive)	29.6 µM (inactive)	31.4 µM (inactive)	32.9 µM (inactive)	76 µM (inactive)	91.4 µM (inactive)	> 100 µM (inactive)	33.8 µM (inactive)	80.9 µM (inactive)	22.1 µM (inactive)	31.2 µM (inactive)	25.6 µM (inactive)	20.2 µM (inactive)	25.1 µM (inactive)	50 µM (inactive)	89.5 µM (inactive)	> 100 µM (inactive)
CC(=O)O[C@H]1CC[C@@]2(C)C(=CC[C@@H]3[C@@H]2CC[C@]2(C)NC(=O)/C(=C\c4ccccc4)C[C@@H]32)C1	16.1 µM (inactive)	13.5 µM (inactive)	22.6 µM (inactive)	20.9 µM (inactive)	20.4 µM (inactive)	21.9 µM (inactive)	18.6 µM (inactive)	15 µM (inactive)	17 µM (inactive)	17.1 µM (inactive)	18.4 µM (inactive)	19.6 µM (inactive)	18.1 µM (inactive)	10.8 µM (inactive)	17.8 µM (inactive)	17.6 µM (inactive)	21.4 µM (inactive)	14.9 µM (inactive)	16.1 µM (inactive)	17.7 µM (inactive)
CCOC(=O)N1N(c2ccccc2)C(=O)C1(c1ccccc1)c1ccccc1	> 100 µM (inactive)	18.9 µM (inactive)	> 100 µM (inactive)	> 100 µM (inactive)	20.4 µM (inactive)	> 100 µM (inactive)	> 100 µM (inactive)	22 µM (inactive)	70.6 µM (inactive)	80.9 µM (inactive)	19.2 µM (inactive)	> 100 µM (inactive)	89.1 µM (inactive)	33.8 µM (inactive)	99.1 µM (inactive)	> 100 µM (inactive)	> 100 µM (inactive)	48.1 µM (inactive)	> 100 µM (inactive)	> 100 µM (inactive)
O=S(=O)(/N=C(\NO)Nc1ccc(Cl)cc1)c1cccc2nsnc12	94.4 µM (inactive)	48.1 µM (inactive)	77.1 µM (inactive)	76.2 µM (inactive)	16.4 µM (inactive)	34.4 µM (inactive)	28.6 µM (inactive)	39.2 µM (inactive)	20.3 µM (inactive)	32.4 µM (inactive)	30.3 µM (inactive)	54.1 µM (inactive)	31.6 µM (inactive)	14.8 µM (inactive)	57.9 µM (inactive)	21.6 µM (inactive)	28.1 µM (inactive)	26.2 µM (inactive)	35.4 µM (inactive)	26.9 µM (inactive)
CCCN(C(=O)c1c(Cl)nnc(Cl)c1C(=O)c1cc(Cl)nnc1Cl)c1cc(Cl)nnc1Cl	27.8 µM (inactive)	4.55 µM (inactive)	15.7 µM (inactive)	33.3 µM (inactive)	14.4 µM (inactive)	12.9 µM (inactive)	9.73 µM (inactive)	16.7 µM (inactive)	5.47 µM (inactive)	5.77 µM (inactive)	6.61 µM (inactive)	6.7 µM (inactive)	16.2 µM (inactive)	9.18 µM (inactive)	19.9 µM (inactive)	5.46 µM (inactive)	7.52 µM (inactive)	12.7 µM (inactive)	16.1 µM (inactive)	21 µM (inactive)
O=C1c2ccccc2-c2ccc(/N=[N+](/[O-])c3ccc4c(c3)C(=O)c3ccccc3-4)cc21	> 100 µM (inactive)	> 100 µM (inactive)	> 100 µM (inactive)	> 100 µM (inactive)	> 100 µM (inactive)	> 100 µM (inactive)	> 100 µM (inactive)	> 100 µM (inactive)	> 100 µM (inactive)	> 100 µM (inactive)	> 100 µM (inactive)	> 100 µM (inactive)	> 100 µM (inactive)	> 100 µM (inactive)	> 100 µM (inactive)	> 100 µM (inactive)	> 100 µM (inactive)	> 100 µM (inactive)	> 100 µM (inactive)	> 100 µM (inactive)
CCN(CC)CCC(=O)N1C/C(=C/c2ccccc2)C(=O)/C(=C\c2ccccc2)C1	2.2 µM (inactive)	1.19 µM (inactive)	0.845 µM (active)	8.57 µM (inactive)	2.19 µM (inactive)	2.78 µM (inactive)	0.363 µM (active)	0.811 µM (active)	0.415 µM (active)	2.31 µM (inactive)	1.06 µM (active)	0.865 µM (active)	0.762 µM (active)	1.76 µM (inactive)	2.11 µM (inactive)	2.16 µM (inactive)	3.03 µM (inactive)	3.42 µM (inactive)	1.52 µM (inactive)	3.45 µM (inactive)
O=c1nc(N2CCNCC2)oc2cc(Cl)oc(=O)c12	15.4 µM (inactive)	2.79 µM (inactive)	12.1 µM (inactive)	12.3 µM (inactive)	8.49 µM (inactive)	6.87 µM (inactive)	0.716 µM (active)	3.91 µM (inactive)	2.06 µM (inactive)	2.9 µM (inactive)	6.49 µM (inactive)	2.2 µM (inactive)	3.91 µM (inactive)	3.14 µM (inactive)	7.13 µM (inactive)	3.34 µM (inactive)	2.7 µM (inactive)	6.28 µM (inactive)	2.45 µM (inactive)	15.5 µM (inactive)
NC(Cc1ccc(S(=O)(=O)O)cc1)C(=O)NC(Cc1ccc(S(=O)(=O)O)cc1)C(=O)NC(Cc1ccc(S(=O)(=O)O)cc1)C(=O)NC(Cc1ccc(S(=O)(=O)O)cc1)C(=O)O (centres undefined)	–	> 100 µM (inactive)	> 100 µM (inactive)	> 100 µM (inactive)	> 100 µM (inactive)	> 100 µM (inactive)	> 100 µM (inactive)	> 100 µM (inactive)	> 100 µM (inactive)	> 100 µM (inactive)	> 100 µM (inactive)	> 100 µM (inactive)	> 100 µM (inactive)	> 100 µM (inactive)	> 100 µM (inactive)	> 100 µM (inactive)	> 100 µM (inactive)	> 100 µM (inactive)	> 100 µM (inactive)	> 100 µM (inactive)
